Measurements published in patent publication US8987500B2, “4-biphenyl-substituted pyrazolidin-3,5-dione derivatives” (Bayer CropScience AG, priority 2003, dated 2015).

What was measured:
Sphaerotheca fuliginea = assay: Sphaerotheca test (cucumber)/protective, Example H; format: in vivo; conditions: Sphaerotheca fuliginea on cucumber, protective, application rate 750 g/ha, evaluation 7 days after inoculation
Protocol: Sphaerotheca Test (Cucumber)/Protective [table] To produce a suitable preparation of active compound, 1 part by weight of active compound is mixed with the stated amounts of solvent and emulsifier, and the concentrate is diluted with water to the desired concentration. To test for protective activity, young cucumber plants are sprayed with the preparation of active compound at the stated application rate. 1 day after the treatment, the plants are inoculated with a spore suspension of Sphaerotheca fuliginea. The plants are then placed in a greenhouse at 70% relative atmospheric humidity and a temperature of 23° C. Evaluation is carried out 7 days after the inoculation. 0% means an efficacy which corresponds to that of the control, whereas an efficacy of 100% means that no infection is observed.

[1] = test system: larvae of the mustard beetle (Phaedon cochleariae); assay: Phaedon test (spray treatment), Example E; format: in vivo; conditions: Table E
Protocol: (§1) Phaedon Test (Spray Treatment) [table] To produce a suitable preparation of active compound, 1 part by weight of active compound is mixed with the stated amounts of solvents and emulsifier, and the concentrate is diluted with emulsifier-containing water to the desired concentration. Discs of Chinese cabbage (Brassica pekinensis) are sprayed with a preparation of active compound of the desired concentration and, after they have dried, populated with larvae of the mustard beetle (Phaedon cochleariae). After the desired period of time, the activity in % is determined 100% means that all beetle larvae have been killed; 0% means that none of the beetle larvae have been killed.

[2] = test system: caterpillars of the army worm (Spodoptera frugiperda); assay: Spodoptera frugiperda test (spray treatment), Example B; format: in vivo; conditions: Table B, 500 g/ha active compound
Protocol: as §1, with “Spodoptera frugiperda” for “Phaedon”, “maize leaves (Zea mays)” for “Chinese cabbage (Brassica pekinensis)”, “caterpillars” for “larvae”, “army worm (Spodoptera frugiperda).” for “mustard beetle (Phaedon cochleariae).”, “caterpillars” for “beetle larvae”

[3] = test system: greenhouse red spider mite (Tetranychus urticae); assay: Tetranychus test (OP-resistant/spray treatment), Example G; format: in vivo; conditions: Tetranychus urticae (OP-resistant), bean leaf discs, spray treatment, 500 g/ha
Protocol: Tetranychus Test (OP-Resistant/Spray Treatment)
(§2) To produce a suitable preparation of active compound, 1 part by weight of active compound is mixed with the stated amounts of solvents and emulsifier, and the concentrate is diluted with emulsifier-containing water to the desired concentration.
Discs of bean leaves (Phaseolus vulgaris) which are infested by all stages of the greenhouse red spider mite (Tetranychus urticae) are sprayed with a preparation of active compound of the desired concentration.
After the desired period of time, the activity in % is determined 100% means that all spider mites have been killed; 0% means that none of the spider mites have been killed.

[4] = test system: caterpillars of the army worm (Spodoptera frugiperda); assay: Spodoptera frugiperda test (spray treatment), Example F; format: in vivo; conditions: maize leaf discs, 500 g/ha
Protocol: as §1, with “Spodoptera frugiperda” for “Phaedon”, “maize leaves (Zea mays)” for “Chinese cabbage (Brassica pekinensis)”, “caterpillars” for “larvae”, “army worm (Spodoptera frugiperda).” for “mustard beetle (Phaedon cochleariae).”, “caterpillars” for “beetle larvae”

[5] = test system: green peach aphid (Myzus persicae); assay: Myzus test (spray treatment), Example D; format: in vivo; conditions: Table D
Protocol: Myzus Test (Spray Treatment)
as §2
Discs of Chinese cabbage (Brassica pekinensi), which are infested by all stages of the green peach aphid (Myzus persicae) are sprayed with a preparation of active compound of the desired concentration.
After the desired period of time, the activity in % is determined 100% means that all aphids have been killed; 0% means that none of the aphids have been killed.

[6] = test system: monocotyledonous and dicotyledonous weed and crop plants; assay: Herbicidal post-emergence action, Example J; format: in vivo; conditions: Greenhouse, 320 g a.i./ha, about 3 weeks
Protocol: Herbicidal Post-Emergence Action Seeds of monocotyledonous and dicotyledonous weed and crop plants are placed into sandy loam in woodfibre pots, covered with soil and cultivated in a greenhouse under good growth conditions. 2-3 weeks after sowing, the test plants are treated at the one-leaf stage. The test compounds formulated as wettable powders (WP) are, in various dosages with a water application rate of 600 l/ha (converted), with 0.2% of wetting agent added, sprayed onto the green parts of the plants. After the test plants have been kept in the greenhouse under optimum growth conditions for about 3 weeks, the effect of the preparations is rated visually in comparison to untreated controls (herbicidal effect in percent (%): 100% effect=plants have died, 0% effect=like control plants).

Meloidogyne incognita = assay: Meloidogyne test, Example C; format: in vivo; conditions: Table C, 20 ppm active compound, nematicidal effect by formation of galls
Protocol: Meloidogyne Test [table] To produce a suitable preparation of active compound, 1 part by weight of active compound is mixed with the stated amounts of solvent, and the concentrate is diluted with water to the desired concentration. Containers are filled with sand, solution of active compound, Meloidogyne incognita egg/larvae suspension and lettuce seeds. The lettuce seeds germinate and the plants develop. On the roots, galls are formed. After the desired period of time, the nematicidal effect is determined in % by the formation of galls. 100% means that no galls have been found; 0% means that the number of galls on the treated plants corresponds to that of the untreated control.

[7] = test system: larvae of the mustard beetle (Phaedon cochleariae); assay: Phaedon test (spray treatment), Example A; format: in vivo; conditions: Table A, 500 g/ha active compound
Protocol: as §1

## Cc1ccc(-c2cccc(Cl)c2)cc1-c1c(OC(=O)C(C)(C)C)n2n(c1=O)CCCC2 [Ex. I-1-b-3]
Sphaerotheca fuliginea
  Efficacy in %: 90%

## Cc1ccc(-c2ccc(Cl)cc2)cc1-c1c(OC(=O)C(C)(C)C)n2n(c1=O)CCCC2 [Ex. I-1-b-4]
[1]; 500 g/ha active compound
  Kill rate in % after 7d: 100%
[2]
  Kill rate in % after 7d: 100%
[3]
  Kill rate in % after 5d: 100%

## Cc1ccc(-c2ccc(Cl)cc2Cl)cc1-c1c(OC(=O)C(C)(C)C)n2n(c1=O)CCCC2 [Ex. I-1-b-11]
[4]
  Kill rate in % after 7d: 100%
[5]; 500 g/ha active compound
  Kill rate in % after 5d: 100%

## Cc1ccc(-c2ccc(F)c(Cl)c2)cc1-c1c(OC(=O)C(C)(C)C)n2n(c1=O)CCCC2 [Ex. I-1-b-17]
[4]
  Kill rate in % after 7d: 100%
[5]; 500 g/ha active compound
  Kill rate in % after 5d: 90%

## Cc1ccc(-c2ccc(C(F)(F)F)cc2)cc1-c1c(OC(=O)C(C)(C)C)n2n(c1=O)CCCC2 [Ex. I-1-b-20]
[6]
  herbicidal effect in percent, Avena fatua: 80%
  herbicidal effect in percent, Lolium: 80%
  herbicidal effect in percent, Setaria: 90%

## CCOC(=O)Oc1c(-c2cc(-c3ccc(Cl)cc3)ccc2C)c(=O)n2n1CCCC2 [Ex. I-1-c-4]
[2]
  Kill rate in % after 7d: 100%

## CCOC(=O)Oc1c(-c2cc(-c3ccc(F)cc3F)ccc2C)c(=O)n2n1CCCC2 [Ex. I-1-c-15]
[1]; 500 g/ha active compound
  Kill rate in % after 7d: 100%
[5]; 500 g/ha active compound
  Kill rate in % after 5d: 100%
[3]
  Kill rate in % after 5d: 100%

## CCOC(=O)Oc1c(-c2cc(-c3ccc(C(F)(F)F)cc3)ccc2C)c(=O)n2n1CCCC2 [Ex. I-1-c-19]
[6]
  herbicidal effect in percent, Avena fatua: 70%
  herbicidal effect in percent, Lolium: 80%
  herbicidal effect in percent, Setaria: 100%

## Cc1ccc(-c2ccc(F)cc2F)cc1-c1c(OC(=O)C(C)(C)C)n2n(c1=O)CCOCC2 [Ex. I-2-b-15]
[4]
  Kill rate in % after 7d: 100%
[5]; 500 g/ha active compound
  Kill rate in % after 5d: 100%

## Cc1ccc(-c2ccc(Cl)cc2)cc1-c1c(OC(=O)C(C)C)n2n(c1=O)CCOCC2 [Ex. I-2-b-31]
[5]; 500 g/ha active compound
  Kill rate in % after 5d: 100%

## CCOC(=O)Oc1c(-c2cc(-c3ccc(F)cc3)ccc2C)c(=O)n2n1CCOCC2 [Ex. I-2-c-6]
[5]; 100 g/ha active compound
  Kill rate in % after 5d: 100%
Meloidogyne incognita
  Effect in % after 14d: 90%

## CCOC(=O)Oc1c(-c2cc(-c3cc(F)ccc3F)ccc2C)c(=O)n2n1CCOCC2 [Ex. I-2-c-16]
[5]; 500 g/ha active compound
  Kill rate in % after 5d: 100%

## Cc1ccc(-c2ccc(F)cc2)cc1-c1c(O)n2n(c1=O)CCCC2 [Example I-1-a-1]
other
  melting point: 172 °C
Meloidogyne incognita
  Effect in % after 14d: 80%

## Cc1ccc(-c2ccc(Cl)cc2)cc1-c1c(O)n2n(c1=O)CCCC2 [Example I-1-a-4]
[7]
  Kill rate in % after 7d: 100%

## Cc1ccc(-c2cc(Cl)ccc2Cl)cc1-c1c(O)n2n(c1=O)CCCC2 [Example I-1-a-12]
[6]
  herbicidal effect in percent, Avena fatua: 80%
  herbicidal effect in percent, Lolium: 70%
  herbicidal effect in percent, Setaria: 70%

## COc1cccc(-c2ccc(C)c(-c3c(O)n4n(c3=O)CCCC4)c2)c1 [Example I-1-a-22]
[6]; Amaranthus
  herbicidal effect in percent, Amaranthus: 70%
[6]
  herbicidal effect in percent, Lolium: 100%
  herbicidal effect in percent, Setaria: 90%

## Cc1ccc(-c2ccc(F)cc2)cc1-c1c(OC(=O)C(C)(C)C)n2n(c1=O)CCCC2 [Example I-1-b-1]
[1]; 500 g/ha active compound
  Kill rate in % after 7d: 100%
Sphaerotheca fuliginea
  Efficacy in %: 94%
Meloidogyne incognita
  Effect in % after 14d: 90%

## CCOC(=O)Oc1c(-c2cc(-c3ccc(F)cc3)ccc2C)c(=O)n2n1CCCC2 [Example I-1-c-1]
[6]
  herbicidal effect in percent, Avena fatua: 90%
  herbicidal effect in percent, Lolium: 90%
  herbicidal effect in percent, Setaria: 80%
[1]; 100 g/ha active compound
  Kill rate in % after 7d: 100%
[5]; 100 g/ha active compound
  Kill rate in % after 5d: 100%
Sphaerotheca fuliginea
  Efficacy in %: 80%

## Cc1cc(C)c(-c2c(O)n3n(c2=O)CCOCC3)c(C)c1-c1ccc(F)cc1 [Example I-2-a-32]
[5]; 500 g/ha active compound
  Kill rate in % after 5d: 90%
